Converted amounts (≈) assume the structure as drawn.

The test system of experiment [1] is Escherichia coli. Kind of experiment: Antibacterial activity against Escherichia coli BW25113 after 16 to 18 hrs by micro-dilution method. Format: functional. (Dilution methods test growth across graded concentrations, often in twofold steps.)
In experiment [2] the test system is Escherichia coli. The experiment in a line: Antibacterial activity against tolC-deficient Escherichia coli BW25113 after 16 to 18 hrs by micro-dilution method. Format: functional.
In experiment [3] the test system is Bacillus subtilis. Kind of experiment: Antibacterial activity against Bacillus subtilis 168 after 16 to 18 hrs by micro-dilution method. To be noted: subsp. subtilis str. 168. In kind it is functional.
The subject of experiment [4] is Acinetobacter baumannii. Kind of experiment: Antibacterial activity against Acinetobacter baumannii after 16 to 18 hrs by micro-dilution method. In kind it is functional.
The test system of experiment [5] is Staphylococcus aureus. Kind of experiment: Antibacterial activity against Staphylococcus aureus after 16 to 18 hrs by micro-dilution method. In kind it is functional.
Experiment [6] has as its system Pseudomonas aeruginosa. Kind of experiment: Antibacterial activity against Pseudomonas aeruginosa after 16 to 18 hrs by micro-dilution method. Format: functional.
Experiment [7] deals with Salmonella typhimurium. The experiment in a line: Antibacterial activity against Salmonella typhimurium after 16 to 18 hrs by micro-dilution method. Format: functional, Salmonella enterica subsp. enterica serovar Typhimurium. Particulars: Salmonella enterica.
Experiment [8] relates to Vibrio cholerae. Kind of experiment: Antibacterial activity against Vibrio cholerae after 16 to 18 hrs by micro-dilution method. Format: functional.
The test system of experiment [9] is Shigella boydii. Kind of experiment: Antibacterial activity against Shigella boydii after 16 to 18 hrs by micro-dilution method. Format: functional.
The subject of experiment [10] is Klebsiella pneumoniae. The experiment in a line: Antibacterial activity against Klebsiella pneumoniae after 16 to 18 hrs by micro-dilution method. In kind it is functional.
In experiment [11] the test system is Klebsiella aerogenes. Kind of experiment: Antibacterial activity against Enterobacter aerogenes after 16 to 18 hrs by micro-dilution method. Format: functional.
The test system of experiment [12] is Edwardsiella tarda. Kind of experiment: Antibacterial activity against Edwardsiella tarda after 16 to 18 hrs by micro-dilution method. Format: functional.
Experiment [13] deals with Morganella morganii. The experiment in a line: Antibacterial activity against Morganella morganii after 16 to 18 hrs by micro-dilution method. In kind it is functional.

With `COc1ccc2c(CCN)c[nH]c2c1`, the MIC in experiment [1], in experiment [2], in [3], in experiment [4] and in experiment [5] was greater than 60.8 µg/mL throughout.

Regarding `CCCCCCCCCOc1ccc(CCN)cc1`, the MIC is 5.3 µg/mL (≈ 20.1 µM) in experiment [1]; 1.3 µg/mL (≈ 4.93 µM) in experiment [2]; 0.66 µg/mL (≈ 2.51 µM) in [3]; greater than 84 µg/mL in experiment [6]; 5.3 µg/mL (≈ 20.1 µM) in [7]; 5.3 µg/mL (≈ 20.1 µM) in experiment [8]. Besides, the MIC in [9] was 5.3 µg/mL (≈ 20.1 µM); in [10], 5.3 µg/mL (≈ 20.1 µM); in experiment [11] it was 11 µg/mL (≈ 41.8 µM); in experiment [4], 5.3 µg/mL (≈ 20.1 µM); in experiment [12], greater than 84 µg/mL; in [13], greater than 84 µg/mL. For the same compound, in experiment [5], inhibition of growth (MIC) required 2.6 µg/mL (≈ 9.87 µM).

In the case of `NCCc1c[nH]c2ccc(O)cc12` [SEROTONIN], the MIC in [1], in experiment [2], in experiment [3], in experiment [4] and in experiment [5] was greater than 56.4 µg/mL throughout.

As to `NCCc1c[nH]c2ccccc12` [TRYPTAMINE], the MIC in experiment [1], in experiment [2], in experiment [3], in experiment [4] and in experiment [5] was greater than 51 µg/mL each time.

Consider `COc1ccc2[nH]cc(CCN)c2c1` [5-METHOXYTRYPTAMINE], for which the MIC in experiment [1], in experiment [2], in [3], in [4] and in experiment [5] was greater than 60.8 µg/mL throughout.

For the compound `Cc1[nH]c2ccc(O)cc2c1CCN`, the MIC in experiment [1], in experiment [2], in experiment [3], in experiment [4] and in [5] was greater than 60.8 µg/mL in each case.

As to `CCCCCCCCCOc1ccc2[nH]cc(CCNC(=O)OC(C)(C)C)c2c1`, the MIC in experiment [1], in experiment [2], in [3], in experiment [6], in [7] and in experiment [8] was greater than 130 µg/mL in each case. In addition, the MIC in experiment [9], in [10], in [11], in [4], in experiment [12] and in experiment [13] was greater than 130 µg/mL in each case. This compound came in with an MIC in experiment [5] greater than 130 µg/mL.

For the compound `CC(C)CCCC(C)CCOc1ccc2[nH]cc(CCN)c2c1.Cl` (stereo not given), the MIC is 13 µg/mL in experiment [1]; 3.2 µg/mL in [2]; 1.6 µg/mL in experiment [3]; 25 µg/mL in experiment [6]; 6.3 µg/mL in experiment [7]; 6.3 µg/mL in experiment [8]. Besides, the MIC is 6.3 µg/mL in [9]; 13 µg/mL in experiment [10]; 13 µg/mL in [11]; 13 µg/mL in experiment [4]; 25 µg/mL in experiment [12]; greater than 101 µg/mL in experiment [13]. Besides, the MIC in experiment [5] worked out at 6.3 µg/mL.

For the compound `CCCCCCCCCOc1ccc2[nH]ccc2c1`, the MIC in experiment [1], in [2], in experiment [3], in experiment [6], in experiment [7] and in experiment [8] was greater than 83 µg/mL throughout. In addition, the MIC in experiment [9], in experiment [10], in experiment [11], in [4], in [12] and in experiment [13] was greater than 83 µg/mL each time. For the same compound, the MIC in experiment [5] was greater than 83 µg/mL.

Turning to `CCCCCCCCCOc1cccc(CN)c1`, the MIC is 9.4 µg/mL (≈ 37.7 µM) in [1]; 4.7 µg/mL (≈ 18.8 µM) in [2]; 4.7 µg/mL (≈ 18.8 µM) in [3]; greater than 75 µg/mL in experiment [6]; 4.7 µg/mL (≈ 18.8 µM) in experiment [7]; 4.7 µg/mL (≈ 18.8 µM) in [8]. The MIC in experiment [9] was 9.4 µg/mL (≈ 37.7 µM); in experiment [10], 9.4 µg/mL (≈ 37.7 µM); in [11], 9.4 µg/mL (≈ 37.7 µM); in [4] it was 9.4 µg/mL (≈ 37.7 µM); in experiment [12], 19 µg/mL (≈ 76.2 µM); in experiment [13] it was 38 µg/mL (≈ 152 µM). The compound also gave an MIC in experiment [5] of 9.4 µg/mL (≈ 37.7 µM).

What is called MIC is the least concentration at which growth counts as inhibited. Low values mean a more susceptible organism, high ones a less susceptible organism.

Values taken from ChEMBL document CHEMBL3864146, “5-Alkyloxytryptamines are membrane-targeting, broad-spectrum antibiotics” (Bioorg Med Chem Lett, 2016).
